From the supplement of paper PMC6045584
± gives the standard deviation of the averaged measurements.

Experiments:
CANERTINIB = compound: C=CC(=O)Nc1cc2c(Nc3ccc(F)c(Cl)c3)ncnc2cc1OCCCN1CCOCC1 [CANERTINIB]; experiment: surviving fraction relative to DMSO-only wells; higher = less growth inhibition; settings: exposure time: 5 days
How it was run: (§1)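 For each tumour cell line, log-phase cells were put into 384-well plates at 250–500 cells per well, then after 24 hours exposed continuously for five days to inhibitors at 0.5, 1, 5, 10, 50, 100, 500 and 1000 nM. Viability was assessed by CellTiter-Glo luminescence, with surviving fraction expressed relative to the median of DMSO-only wells. Lines were screened three times and retained only if replicate Pearson r exceeded 0.7 and median Z' exceeded 0.3.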

BI-2536 = compound: CC[C@@H]1C(=O)N(C)c2cnc(Nc3ccc(C(=O)NC4CCN(C)CC4)cc3OC)nc2N1C1CCCC1 [BI-2536]; experiment: as above; settings: exposure time: 5 days
How it was run: as §1

Test System	surviving fraction (CANERTINIB; 0.5 nM)	surviving fraction (CANERTINIB; 1 nM)	surviving fraction (CANERTINIB; 5 nM)	surviving fraction (CANERTINIB; 10 nM)	surviving fraction (CANERTINIB; 50 nM)	surviving fraction (CANERTINIB; 100 nM)	surviving fraction (CANERTINIB; 500 nM)	surviving fraction (CANERTINIB; 1000 nM)	surviving fraction (BI-2536; 0.5 nM)	surviving fraction (BI-2536; 1 nM)	surviving fraction (BI-2536; 5 nM)	surviving fraction (BI-2536; 10 nM)	surviving fraction (BI-2536; 50 nM)	surviving fraction (BI-2536; 100 nM)	surviving fraction (BI-2536; 500 nM)	surviving fraction (BI-2536; 1000 nM)
A549 LUNG	0.915 ± 0.018	0.909 ± 0.018	0.93 ± 0.014	0.873 ± 0.01	0.955 ± 0.046	0.965 ± 0.026	0.9707 ± 0.0042	0.948 ± 0.05	1.02 ± 0.056	1 ± 0.034	0.48 ± 0.016	0.28 ± 0.0067	0.133 ± 0.0046	0.0943 ± 0.0074	0.0457 ± 0.0071	0.039 ± 0.003
MDAMB157 BREAST	0.847 ± 0.035	0.86 ± 0.088	0.858 ± 0.048	0.936 ± 0.049	0.921 ± 0.067	0.844 ± 0.089	0.753 ± 0.013	0.658 ± 0.051	0.912 ± 0.041	0.62 ± 0.19	0.0967 ± 0.0025	0.0937 ± 0.013	0.093 ± 0.0095	0.157 ± 0.033	0.224 ± 0.013	0.255 ± 0.0076
SUM159 BREAST	0.973 ± 0.011	0.961 ± 0.028	0.948 ± 0.028	0.9347 ± 0.0076	0.9437 ± 0.0046	0.942 ± 0.022	0.916 ± 0.012	0.9197 ± 0.009	0.968 ± 0.2	0.967 ± 0.19	0.953 ± 0.18	0.864 ± 0.17	0.194 ± 0.035	0.167 ± 0.077	0.131 ± 0.057	0.134 ± 0.05
SUM149.B1*.S BREAST	0.921 ± 0.016	0.941 ± 0.015	0.933 ± 0.026	0.917 ± 0.048	0.956 ± 0.028	0.972 ± 0.018	0.868 ± 0.055	0.805 ± 0.029	1.1 ± 0.091	1.05 ± 0.03	0.416 ± 0.067	0.232 ± 0.031	0.269 ± 0.032	0.287 ± 0.021	0.297 ± 0.045	0.229 ± 0.03
SCC003 HEADNECK	0.691 ± 0.065	0.867 ± 0.032	0.897 ± 0.054	0.775 ± 0.014	0.899 ± 0.075	0.8 ± 0.075	0.718 ± 0.036	0.434 ± 0.061	1.06 ± 0.12	0.93 ± 0.027	0.467 ± 0.059	0.412 ± 0.066	0.596 ± 0.074	0.582 ± 0.033	0.381 ± 0.019	0.275 ± 0.028
143B BONE	1.05 ± 0.044	1.04 ± 0.057	1.05 ± 0.038	1.06 ± 0.061	1.08 ± 0.047	1.07 ± 0.039	1.04 ± 0.067	0.984 ± 0.073	1.01 ± 0.023	0.954 ± 0.0071	0.117 ± 0.013	0.0745 ± 0.005	0.082 ± 0.0042	0.114 ± 0.013	0.254 ± 0.0014	0.235 ± 0.025
CME SYNOVIAL	0.93 ± 0.083	0.969 ± 0.098	0.918 ± 0.065	0.888 ± 0.087	1.18 ± 0.034	1.2 ± 0.11	1.05 ± 0.033	0.876 ± 0.11	1.02 ± 0.077	0.988 ± 0.11	0.683 ± 0.18	0.378 ± 0.031	0.278 ± 0.023	0.237 ± 0.01	0.259 ± 0.004	0.279 ± 0.011
SUM149 BREAST	0.898 ± 0.078	0.832 ± 0.052	0.627 ± 0.029	0.531 ± 0.04	0.451 ± 0.053	0.424 ± 0.072	0.324 ± 0.037	0.279 ± 0.037	1.05 ± 0.054	0.906 ± 0.091	0.122 ± 0.012	0.0487 ± 0.0035	0.0743 ± 0.0057	0.0903 ± 0.014	0.084 ± 0.01	0.0603 ± 0.0065
SCC90 HEADNECK	0.781 ± 0.13	0.793 ± 0.056	0.787 ± 0.018	0.737 ± 0.064	0.656 ± 0.075	0.564 ± 0.065	0.428 ± 0.021	0.335 ± 0.051	0.939 ± 0.12	0.461 ± 0.057	0.075 ± 0.0044	0.0887 ± 0.0087	0.148 ± 0.007	0.198 ± 0.022	0.217 ± 0.036	0.138 ± 0.011
G292 BONE	0.914 ± 0.061	0.949 ± 0.028	0.966 ± 0.055	0.957 ± 0.019	0.955 ± 0.054	0.997 ± 0.073	0.876 ± 0.046	0.677 ± 0.051	0.9403 ± 0.0023	0.659 ± 0.042	0.254 ± 0.012	0.23 ± 0.013	0.161 ± 0.011	0.128 ± 0.0057	0.0832 ± 0.0094	0.0727 ± 0.0063
YAMATO SYNOVIAL	0.878 ± 0.19	0.857 ± 0.088	0.909 ± 0.065	0.938 ± 0.091	1.27 ± 0.1	1.28 ± 0.067	1.06 ± 0.083	1.1 ± 0.074	1.05 ± 0.061	0.888 ± 0.05	0.345 ± 0.0062	0.315 ± 0.0095	0.324 ± 0.013	0.256 ± 0.014	0.279 ± 0.018	0.336 ± 0.027
MHM BONE	0.981 ± 0.051	0.983 ± 0.038	1.03 ± 0.054	1 ± 0.051	0.9877 ± 0.0076	0.953 ± 0.021	0.903 ± 0.019	0.863 ± 0.018	1.02 ± 0.021	0.993 ± 0.017	1.03 ± 0.023	0.831 ± 0.058	0.404 ± 0.013	0.327 ± 0.026	0.248 ± 0.0076	0.258 ± 0.015
HCC1395 BREAST	0.955 ± 0.095	0.901 ± 0.022	1 ± 0.15	0.905 ± 0.059	1.13 ± 0.068	1.05 ± 0.021	1.06 ± 0.11	1.01 ± 0.066	1.04 ± 0.12	0.9 ± 0.043	0.709 ± 0.18	0.623 ± 0.15	0.729 ± 0.071	0.661 ± 0.05	1.11 ± 0.19	0.78 ± 0.029
SCC47 HEADNECK	0.828 ± 0.025	0.921 ± 0.088	0.881 ± 0.048	0.889 ± 0.028	0.9577 ± 0.0083	0.805 ± 0.032	0.681 ± 0.015	0.432 ± 0.044	1.05 ± 0.095	1.01 ± 0.066	0.455 ± 0.013	0.367 ± 0.034	0.403 ± 0.046	0.464 ± 0.045	0.437 ± 0.018	0.356 ± 0.02
SG28 HEADNECK	0.824 ± 0.055	0.803 ± 0.046	0.627 ± 0.081	0.621 ± 0.089	0.642 ± 0.0092	0.498 ± 0.059	0.364 ± 0.073	0.366 ± 0.021	1.19 ± 0.14	1.063 ± 0.0017	0.864 ± 0.04	0.87 ± 0.046	0.961 ± 0.11	0.687 ± 0.064	0.478 ± 0.084	0.279 ± 0.053
HOS BONE	0.955 ± 0.029	0.923 ± 0.011	0.932 ± 0.031	0.915 ± 0.019	1.01 ± 0.012	1.01 ± 0.026	0.935 ± 0.011	0.914 ± 0.014	1.02 ± 0.015	0.979 ± 0.008	0.203 ± 0.044	0.031 ± 0.0027	0.0337 ± 0.0029	0.023 ± 0.001	0.018 ± 0.001	0.0207 ± 0.00058
NCIH441 LUNG	0.951 ± 0.059	1.02 ± 0.02	1.01 ± 0.029	1.03 ± 0.07	0.918 ± 0.1	0.923 ± 0.0095	0.736 ± 0.098	0.635 ± 0.086	1.03 ± 0.16	0.859 ± 0.11	0.571 ± 0.057	0.499 ± 0.041	0.502 ± 0.03	0.507 ± 0.022	0.36 ± 0.028	0.228 ± 0.01
MDAMB468 BREAST	0.866 ± 0.035	0.837 ± 0.087	0.841 ± 0.087	0.777 ± 0.054	0.789 ± 0.068	0.72 ± 0.07	0.478 ± 0.029	0.382 ± 0.017	0.902 ± 0.037	0.462 ± 0.048	0.0863 ± 0.0084	0.111 ± 0.018	0.215 ± 0.018	1.05 ± 0.061	0.111 ± 0.008	0.084 ± 0.0027
SG32 HEADNECK	0.647 ± 0.084	0.826 ± 0.11	0.778 ± 0.12	0.839 ± 0.094	0.786 ± 0.15	0.703 ± 0.14	0.577 ± 0.09	0.501 ± 0.031	1.22 ± 0.12	1.07 ± 0.18	0.32 ± 0.017	0.296 ± 0.022	0.292 ± 0.0097	0.294 ± 0.043	0.204 ± 0.014	0.16 ± 0.02
RDES SOFT TISSUE	0.774 ± 0.16	0.858 ± 0.12	0.707 ± 0.049	0.713 ± 0.19	0.903 ± 0.063	1.06 ± 0.14	1.09 ± 0.032	0.921 ± 0.21	1.05 ± 0.086	1.11 ± 0.12	0.603 ± 0.18	0.0407 ± 0.0038	0.034 ± 0.0036	0.024 ± 0.001	0.0287 ± 0.0015	0.0297 ± 0.0035
93VU HEADNECK	0.784 ± 0.029	0.787 ± 0.065	0.86 ± 0.034	0.698 ± 0.042	1.07 ± 0.053	0.738 ± 0.062	0.63 ± 0.02	0.312 ± 0.044	1.11 ± 0.12	1.05 ± 0.06	0.507 ± 0.077	0.27 ± 0.012	0.258 ± 0.0056	0.333 ± 0.056	0.205 ± 0.023	0.123 ± 0.0066
